Laboratory results: patent US20260297136A1, “PEPTIDES WITH LIPOLYTIC, ANTI-LIPOGENIC, ANTIFIBROTIC AND ANTI-INFLAMMATORY ACTIVITY” (FUNDACIÓ HOSPITAL UNIVERSITARI VALL D'HEBRON - INSTITUT DE …, priority 2023, published 2026)

Experiments:
human mature adipocytes [1] = test: Lipolysis in human mature adipocytes (glycerol production), Example 3; format: cell-based; settings: Homo sapiens, Adipocyte; 1 μM, 16 h, with respect to controls; read-out: increase of glycerol concentration (lipolysis positive control)
Method: FIG. 4 Mature human subcutaneous adipocytes were treated with vehicle (DMSO), 1 μM of Isoproterenol, Semaglutide (10 nM) or GP6 (25, 50 or 100 μg/ml) for 16 h. Glycerol concentration was assessed using a Lipolysis Assay Kit (Tebu-bio).
(§1) Human preadipocytes and cell culture reagents were from purchased from Tebu-Bio (Tebu-bio, Barcelona, Spain) and differentiation protocol was done following the manufacturer's instructions. Human adipocytes were maintained in a humidified incubator with 5% CO2 at 37° C. (Sex hormone-binding globulin overexpression protects against high-fat diet-induced obesity in transgenic male mice. Saez-Lopez C, Villena J A, Simo R, Selva D M. J Nutr Biochem. 2020 November; 85:108480. doi: 10.1016/j.jnutbio.2020.108480).
Lipolysis assays were performed using a Lipolysis Kit (Tebu-Bio) following the manufacturer's instructions as previously described by Saez-Lopez and collaborators (Sex hormone-binding globulin overexpression protects against high-fat diet-induced obesity in transgenic male mice. Saez-Lopez C, Villena J A, Simo R, Selva D M. J Nutr Biochem. 2020 November; 85:108480. doi: 10.1016/j.jnutbio.2020.108480.)

human mature adipocytes [2] = test: Lipolysis in human mature adipocytes (glycerol production), Example 2; format: cell-based; settings: 16 h
Method: FIG. 7. Mature human subcutaneous adipocytes were treated with vehicle (DMSO), 3 μM of Isoproterenol or 10 μM of GP4, GP8 or GP9 for 16 h. Glycerol concentration was assessed using a Lipolysis Assay Kit (Tebu-bio). Lipolysis induction was calculated with respect to the control cells treated with DMSO.
as §1
Lipolysis assays were performed using a Lipolysis Kit (Tebu-Bio) following the manufacturer's instructions as previously described.

HepG2 cells [3] = test: Hepatic lipogenesis gene expression (ACC, FAS, ACLY mRNA by RTPCR) in HepG2 cells, Example 2; format: cell-based, human; settings: 10 μM, 24 h, relative to 18S
Method: FIG. 5 Human hepatoblastoma cell line HepG2 was treated with vehicle (DMSO) or 10 μM of GP4, GP7, GP8 or GP9 for 24 h. RNA was extracted and mRNA levels of Acetyl-CoA Carboxylase (ACC), Fatty Acid Synthase (FAS) and ATP-Citrate Lyase (ACLY) relative to 18S were measured by RTPCR.
(§2) Cell culture reagents were from Life Technologies Inc (Invitrogen SA, Barcelona, Spain). HepG2 hepatoblastoma cells (cat. no. HB-8065; ATCC, LGC Standards SLU, Barcelona, Spain) were maintained in Dulbecco's modified Eagle medium (DMEM) supplemented with 10% fetal bovine serum and antibiotics. HepG2 cells were treated with vehicle or 10 μM of GP4, GP7, GP8 and GP9 for 24 h. LX-2 human hepatic stellate cells (SCC064) were maintained in DMEM supplemented with 2% fetal bovine serum and antibiotics. For experiments, LX-2 were cultured for 24 h in DMEM 0.2% FBS and treated for 24 h with vehicle or TGFβ1 (20 ng/ml) in the absence or presence of 8 μM of GP4, GP7, GP8 and GP9 for 24 h. At the end of the experiment's cells were harvested for gene expression analysis.
Total RNA was extracted from HepG2 and LX-2 cells using TRIzol reagent (Invitrogen SA). Reverse transcription was performed at 42° C. for 50 minutes using […] of total RNA, 200 U of Superscript II, and an oligo-dT primer and reagents provided by Invitrogen. An aliquot of the reverse transcription product was amplified in a […] reaction using SYBRGreen (Invitrogen SA) with appropriate oligonucleotide primer pairs corresponding to human ACC, FAS, ACLY, Col1A1 and 18S (shown in table 7). Results were analyzed using the 7000 Sequence Detection System program (Applied Biosystems, Thermo Fisher Scientific, Barcelona, Spain) (Sex Hormone-Binding Globulin Reduction in Metabolic Disorders May Play a Role in NAFLD Development.Saez-Lopez C, Barbosa-Desongles A, Hernandez C, Dyer R A, Innis S M, Simo R, Selva D M. Endocrinology. 2017 Mar. 1; 158(3):545-559. doi: 10.1210/en.2016-1668).

HepG2 cells [4] = test: Hepatic lipogenic key enzymes in HepG2 cells in the presence of 30 mM fructose (2 h), Example 7; format: cell-based, human
Method: FIG. 34. Effects of different peptides and SHBG in reducing hepatic lipogenic key enzymes in the presence of 30 mM fructose. Each bar within each group represents mRNA levels of a key hepatic lipogenic enzyme, from left to right: Acetyl-CoA Carboxylase (ACC), ATP Citrate Lyase (ACLY) and Fatty Acid Synthase (FAS), and a key transcription factor regulating several lipogenic enzymes such as PPARγ (PPARγ).
Cell culture reagents were from Life Technologies Inc (Invitrogen SA, Barcelona, Spain). HepG2 hepatoblastoma cells (cat. no. HB-8065; ATCC, LGC Standards SLU, Barcelona, Spain) were maintained in Dulbecco's modified Eagle medium (DMEM) supplemented with 10% fetal bovine serum and antibiotics.
• HepG2 cells were cultured for 5 day in the absence or presence of 30 mM fructose. Cells cultured in 30 mM fructose were daily treated with vehicle, Telmisartan, Semaglutide or EDL6D. • HepG2 cells were cultured for 24 h in the absence or presence of GP6 (40 μg/ml), GP10 (40 μg/ml), GP11 (40 μg/ml), GP12 (40 μg/ml), GP13 (40 μg/ml) or SHBG (20 nM). • HepG2 cells were cultured in the absence or presence of 30 mM fructose and treated for 2 h with vehicle or GP4 (40 μg/ml), GP6 (40 μg/ml), GP7 (40 μg/ml), GP8 (40 μg/ml), GP9 (40 μg/ml), GP10 (40 μg/ml), GP11 (40 μg/ml), GP12 (40 μg/ml), GP13 (40 μg/ml) or SHBG (20 nM).
Total RNA was extracted from HepG2 and LX-2 cells using TRIzol reagent (Invitrogen SA). Reverse transcription was performed at 42° C. for 50 minutes using […] of total RNA, 200 U of Superscript II, and an oligo-dT primer and reagents provided by Invitrogen. An aliquot of the reverse transcription product was amplified in a […] reaction using SYBRGreen (Invitrogen SA) with appropriate oligonucleotide primer pairs corresponding to human SHBG, ACC, FAS, ACLY, PPARG, and 18S and mouse ACC, FAS, ACLY, PPARG, Col1A1 and 18S. Results were analyzed using the 7000 Sequence Detection System program (Applied Biosystems, Thermo Fisher Scientific, Barcelona, Spain) (Shez-Lopez et al Endocrinology 2017).

LX-2 cells = test: Fibrosis in LX-2 cells: Col1A1 mRNA induced by TGFβ1, Example 2; format: cell-based, human; settings: 8 μM, 24 h
Method: FIG. 6. Human hepatic stellate cell line LX-2 was treated with vehicle (DMSO) or TGFβ1 (10 ng/ml) in the absence or presence of 8 μM of GP8 or GP9 for 24 h. RNA was extracted and mRNA levels of collagen 1A1 (Col1A1) relative to 18S were measured by RTPCR.
as §2, with “For experiments, LX-2 were cultured for 24 h in DMEM 0.2% FBS and treated for 24 h with vehicle or TGFβ1 (20 ng/ml) in the absence or presence of 8 μM of GP4, GP7, GP8 and GP9 for 24 h. At the end of the experiment's cells were harvested for gene expression analysis.” left out
Total RNA was extracted from HepG2 and LX-2 cells using TRIzol reagent (Invitrogen SA). […] Results were analyzed using the 7000 Sequence Detection System program (Applied Biosystems, Thermo Fisher Scientific, Barcelona, Spain) (Sex Hormone-Binding Globulin Reduction in Metabolic Disorders May Play a Role in NAFLD Development.Saez-Lopez C, Barbosa-Desongles A, Hernandez C, Dyer R A, Innis S M, Simo R, Selva D M. Endocrinology. 2017 Mar. 1; 158(3):545-559. doi: 10.1210/en.2016-1668).

[5] = EP 3003351 A1; cited from earlier work

Molecule: CC(C)NCC(O)c1ccc(O)c(O)c1 (stereo not shown) [isoproterenol, 4-[1-hydroxy-2-(propan-2-ylamino)ethyl]benzene-1,2-diol, reference compound]
- activation at 1 µM (human mature adipocytes [1]): 400%
- activation at 3 µM (human mature adipocytes [2]; Homo sapiens, Adipocyte, 3 μM, with respect to control, read-out: increase of glycerol concentration (lipolysis positive control)): 370%

Molecule: CC[C@@H](C)[C@@H](NC(=O)[C@H](NC(=O)CNC(=O)[C@@H](CCC(=O)O)NC(=O)[C@H]1CCCN1C(=O)[C@@H](CC(=O)O)NC(=O)[C@@H](Cc1c[nH]c2ccccc12)NC(=O)[C@H](N)[C@H](C)O)C(C)C)C(=O)N[C@H](Cc1ccccc1)C(=O)N[C@H](Cc1ccc(O)cc1)C(=O)NCC(=O)N[C@H](CC(=O)O)C(=O)N[C@@H](C(=O)N[C@H](CC(N)=O)C(=O)N1CCC[C@@H]1C(=O)N[C@H](CCCCN)C(=O)N[C@H](CC(=O)O)C(=O)N[C@H](CC(=O)O)C(=O)N[C@H](Cc1c[nH]c2ccccc12)C(=O)N[C@H](Cc1ccccc1)C(=O)N[C@H](CCSC)C(=O)N[C@H](CC(C)C)C(=O)NCC(=O)N[C@H](CC(C)C)C(=O)N[C@H](CCCNC(=N)N)C(=O)N[C@H](CC(=O)O)C(=O)NCC(=O)N[C@H](CCCNC(=N)N)C(=O)N1CCC[C@@H]1C(=O)N[C@H](CCC(=O)O)C(=O)O)[C@H](C)O [GP9]
- ATP-Citrate Lyase (ACLY) mRNA levels (HepG2 cells [3]): did not alter
- Acetyl-CoA Carboxylase (ACC) mRNA levels (HepG2 cells [3]): did not alter
- Fatty Acid Synthase (FAS) mRNA levels (HepG2 cells [3]): reduced
- fructose-induced expression of ACC (HepG2 cells [4]; 40 μg/ml): able to reduce the expression of ACC and ACLY more effectively than SHBG
- fructose-induced expression of ACLY (HepG2 cells [4]; 40 μg/ml): able to reduce the expression of ACC and ACLY more effectively than SHBG
- fructose-induced expression of FAS (HepG2 cells [4]; 40 μg/ml): had no effect on FAS
- fructose-induced expression of PPARγ (HepG2 cells [4]; 40 μg/ml): increased PPARγ expression
- reduction of Col1A1 mRNA levels induced by TGFβ1 (LX-2 cells): 21%
- increase of glycerol production (lipolysis) (human mature adipocytes [2]; 10 μM, with respect to control cells): 170%

B1: SHBG: sex hormone-binding globulin (SHBG) protein (protein, UniProt P04278 30-402, looked up)
Sex hormone-binding globulin: LRPVLPTQSAHDPPAVHLSNGPGQEPIAVMTFDLTKITKTSSSFEVRTWDPEGVIFYGDTNPKDDWFMLGLRDGRPEIQLHNHWAQLTVGAGPRLDDGRWHQVEVKMEGDSVLLEVDGEEVLRLRQVSGPLTSKRHPIMRIALGGLLFPASNLRLPLVPALDGCLRRDSWLDKQAEISASAPTSLRSCDVESNPGIFLPPGTQAEFNLRDIPQPHAEPWAFSLDLGLKQAAGSGHLLALGTPENPSWLSLHLQDQKVVLSSGSGPGLDLPLVLGLPLQLKLSMSRVVLSQGSKMKALALPPLGLAPLLNLWAKPQGRLFLGALPGEDSSTSFCLNGLWAQGQRLDVDQALNRSHEIWTHSCPQSPGNGTDASH
- lipolytic and anti-lipogenic activity [5]: has lipolytic and anti-lipogenic activity
- fructose-induced expression of ACC (HepG2 cells [4]; SHBG 20 nM): able to reduce
- fructose-induced expression of ACLY (HepG2 cells [4]; SHBG 20 nM): able to reduce
- fructose-induced expression of FAS (HepG2 cells [4]; SHBG 20 nM): able to reduce
- fructose-induced expression of PPARγ (HepG2 cells [4]; SHBG 20 nM): able to reduce
